According to patent publication US8648066B2 (Exelixis, Inc., priority 2009, dated 2014):

Biological target: mTOR/GbL/Raptor (mTORC1) (Homo sapiens, UniProt P42345)
Experiment: mTOR/GbL/Raptor (mTORC1) ELISA assay
Type: biochemical
Conditions: phosphorylation of 4E-BP1; 0.2 nM mTORC1, 10 μM ATP; read-out: IC50 in this assay (mTORC1 ELISA)
In short: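 ELISA read-out: phospho-4E-BP1 captured on Ni-chelate plates and detected with anti-phospho antibody plus HRP-anti-IgG luminescence. The kinase step ran 120 min at ambient temperature with 0.2 nM human mTORC1, 10 µM ATP, 50 nM His-4E-BP1, 10 mM MnCl2, pH 7.2 HEPES.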

Compound | IC50 [nM]
Cc1nc2cc(-c3ccc4c(c3)CN(c3nc(CN(C)C)nc(C)c3C(C)C)CCO4)cnc2[nH]1 [Example 614, N,N-dimethyl-1-{4-methyl-5-(1-methylethyl)-6-[7-(2-methyl-3H-imidazo[4,5-b]pyridin-6-yl)-2,3-dihydro-1,4-benzoxazepin-4(5H)-yl]pyrimidin-2-yl}methanamine] | 10 to 50
CC1(C)CCc2ncnc(N3CCOc4ccc(-c5cnc(N)c(S(=O)(=O)N6C7CCC6CC(N)C7)c5)cc4C3)c2C1 (centres unmarked) [Example 575, 8-({2-amino-5-[4-(6,6-dimethyl-5,6,7,8-tetrahydroquinazolin-4-yl)-2,3,4,5-tetrahydro-1,4-benzoxazepin-7-yl]pyridin-3-yl}sulfonyl)-8-azabicyclo[3.2.1]octan-3-amine] | 10 to 50
CCNc1nc2ncc(-c3ccc4c(c3)CN(c3ncnc(C)c3Cc3ccc(F)cc3)CCO4)cc2[nH]1 [Example 250, N-ethyl-6-(4-{5-[(4-fluorophenyl)methyl]-6-methylpyrimidin-4-yl}-2,3,4,5-tetrahydro-1,4-benzoxazepin-7-yl)-1H-imidazo[4,5-b]pyridin-2-amine] | ≤ 10
Cc1ncnc(N2CCOc3ccc(-c4ccc5[nH]nc(N)c5c4)cc3C2)c1Cc1ccc(F)cc1 [Example 249, 5-(4-{5-[(4-fluorophenyl)methyl]-6-methylpyrimidin-4-yl}-2,3,4,5-tetrahydro-1,4-benzoxazepin-7-yl)-1H-indazol-3-amine] | 50 to 250
Cc1ncnc(N2CCOc3ccc(-c4ccc5nc(N)ncc5c4)cc3C2)c1Cc1ccc(F)cc1 [Example 143, 6-(4-{5-[(4-fluorophenyl)methyl]-6-methylpyrimidin-4-yl}-2,3,4,5-tetrahydro-1,4-benzoxazepin-7-yl)quinazolin-2-amine] | 10 to 50
COc1c(OCCN(C)C)ccc2c(N3CCOc4ccc(-c5ccc6nc(C)[nH]c6c5)cc4C3)ncnc12 [Example 165, N,N-dimethyl-2-({4-[7-(2-methyl-1H-benzimidazol-6-yl)-2,3-dihydro-1,4-benzoxazepin-4(5H)-yl]-8-(methyloxy)quinazolin-7-yl}oxy)ethanamine] | ≥ 2000
CCNc1nc2ncc(-c3ccc4c(c3)CN(c3ccncn3)CCO4)cc2[nH]1 [Example 230, N-ethyl-6-(4-pyrimidin-4-yl-2,3,4,5-tetrahydro-1,4-benzoxazepin-7-yl)-1H-imidazo[4,5-b]pyridin-2-amine] | 50 to 250
CCNc1nc2ccc(-c3ccc4c(c3)CN(c3ccnc5ccccc35)CCO4)cc2[nH]1 [Example 208, N-ethyl-6-(4-quinolin-4-yl-2,3,4,5-tetrahydro-1,4-benzoxazepin-7-yl)-1H-benzimidazol-2-amine] | 50 to 250
CC1(C)CCc2ncnc(N3CCOc4ccc(-c5cnc(N)c(S(=O)(=O)N6C[C@@H]7C[C@H]6CN7)c5)cc4C3)c2C1 [Example 436, 3-[(1S,4S)-2,5-diazabicyclo[2.2.1]hept-2-ylsulfonyl]-5-[4-(6,6-dimethyl-5,6,7,8-tetrahydroquinazolin-4-yl)-2,3,4,5-tetrahydro-1,4-benzoxazepin-7-yl]pyridin-2-amine] | ≤ 10
Cc1nc2ncc(-c3ccc4c(c3)CN(c3ncnc5c3CCC(C)(C)C5)CCO4)cc2[nH]1 [Example 484, 4-(7,7-dimethyl-5,6,7,8-tetrahydroquinazolin-4-yl)-7-(2-methyl-1H-imidazo[4,5-b]pyridin-6-yl)-2,3,4,5-tetrahydro-1,4-benzoxazepine] | ≤ 10
Cc1nc2ncc(-c3ccc4c(c3)CN(c3nc(CNC(C)(C)C)nc5c3CC(C)(C)CC5)CCO4)cc2[nH]1 [Example 595, N-({6,6-dimethyl-4-[7-(2-methyl-1H-imidazo[4,5-b]pyridin-6-yl)-2,3-dihydro-1,4-benzoxazepin-4(5H)-yl]-5,6,7,8-tetrahydroquinazolin-2-yl}methyl)-2-methylpropan-2-amine] | 10 to 50
Cc1nc2ccc(-c3ccc4c(c3)CN(c3nc(CNC5CC5)nc(C)c3Cc3ccc(F)cc3)CCO4)cc2[nH]1 [Example 584, N-({5-[(4-fluorophenyl)methyl]-4-methyl-6-[7-(2-methyl-1H-benzimidazol-6-yl)-2,3-dihydro-1,4-benzoxazepin-4(5H)-yl]pyrimidin-2-yl}methyl)cyclopropanamine] | ≤ 10
Cc1nc(C)c(CC2CC2)c(N2CCOc3ccc(-c4cnc5nc(C6CC6)[nH]c5c4)cc3C2)n1 [Example 547, 7-(2-cyclopropyl-1H-imidazo[4,5-b]pyridin-6-yl)-4-[5-(cyclopropylmethyl)-2,6-dimethylpyrimidin-4-yl]-2,3,4,5-tetrahydro-1,4-benzoxazepine] | 10 to 50
Cc1nc2ccc(-c3ccc4c(c3)CN(c3ncnc(C)c3Cc3ccc(C(F)(F)F)cc3)CCO4)cc2[nH]1 [Example 90, 7-(2-methyl-1H-benzimidazol-6-yl)-4-(6-methyl-5-{[4-(trifluoromethyl)phenyl]methyl}pyrimidin-4-yl)-2,3,4,5-tetrahydro-1,4-benzoxazepine] | 10 to 50
COCCc1c(C)nc(CN(C)C)nc1N1CCOc2ccc(-c3cnc4sc(N)nc4c3)cc2C1 [Example 667, 6-(4-{2-[(dimethylamino)methyl]-6-methyl-5-[2-(methyloxy)ethyl]pyrimidin-4-yl}-2,3,4,5-tetrahydro-1,4-benzoxazepin-7-yl)[1,3]thiazolo[5,4-b]pyridin-2-amine] | 50 to 250
Cc1nc2ccc(-c3ccc4c(c3)CN(c3nc(CNC5CCC5)nc5c3CC(C)(C)CC5)CCO4)cc2[nH]1 [Example 587, N-({6,6-dimethyl-4-[7-(2-methyl-1H-benzimidazol-6-yl)-2,3-dihydro-1,4-benzoxazepin-4(5H)-yl]-5,6,7,8-tetrahydroquinazolin-2-yl}methyl)cyclobutanamine] | 10 to 50
Cc1ncnc(N2CCOc3ccc(-c4ccc(C(N)=O)cc4)cc3C2)c1Cc1ccc(F)cc1 [Example 170, 4-(4-{5-[(4-fluorophenyl)methyl]-6-methylpyrimidin-4-yl}-2,3,4,5-tetrahydro-1,4-benzoxazepin-7-yl)benzamide] | ≤ 10
Cc1nc2ccc(-c3ccc4c(c3)CN(c3ncnc(C(C)C)c3C)CCO4)cc2[nH]1 [Example 62, 7-(2-methyl-1H-benzimidazol-6-yl)-4-[5-methyl-6-(1-methylethyl)pyrimidin-4-yl]-2,3,4,5-tetrahydro-1,4-benzoxazepine] | 250 to 1000
C[C@@H](CO)CS(=O)(=O)c1cc(-c2ccc3c(c2)CN(c2ncnc4c2CC(C)(C)CC4)CCO3)cnc1N [Example 301, (2S)-3-({2-amino-5-[4-(6,6-dimethyl-5,6,7,8-tetrahydroquinazolin-4-yl)-2,3,4,5-tetrahydro-1,4-benzoxazepin-7-yl]pyridin-3-yl}sulfonyl)-2-methylpropan-1-ol] | 10 to 50
Nc1nc2ccc(-c3ccc4c(c3)CN(c3ccnc5ccccc35)CCO4)cc2[nH]1 [Example 190, 6-(4-quinolin-4-yl-2,3,4,5-tetrahydro-1,4-benzoxazepin-7-yl)-1H-benzimidazol-2-amine] | 250 to 1000
COc1ccc2nc(Cl)nc(N3CCOc4ccc(-c5ccc6nc(C)[nH]c6c5)cc4C3)c2c1 [Example 33, 4-[2-chloro-6-(methyloxy)quinazolin-4-yl]-7-(2-methyl-1H-benzimidazol-6-yl)-2,3,4,5-tetrahydro-1,4-benzoxazepine] | 250 to 1000
COc1ccc2ncnc(N3CCOc4ccc(-c5cnc6nc(N)[nH]c6c5)cc4C3)c2c1 [Example 182, 6-{4-[6-(methyloxy)quinazolin-4-yl]-2,3,4,5-tetrahydro-1,4-benzoxazepin-7-yl}-1H-imidazo[4,5-b]pyridin-2-amine] | 10 to 50
CC1(C)CCc2ncnc(N3CCOc4ccc(-c5cnc(N)c(S(=O)(=O)N6CC[C@@H](N)C6)c5)cc4C3)c2C1 [Example 449, 3-{[(3R)-3-aminpyrrolidin-1-yl]sulfonyl}-5-[4-(6,6-dimethyl-5,6,7,8-tetrahydroquinazolin-4-yl)-2,3,4,5-tetrahydro-1,4-benzoxazepin-7-yl]pyridin-2-amine] | ≤ 10
CC1(C)CCc2ncnc(N3CCOc4ccc(-c5cnc(N)c(S(=O)(=O)N6CC[C@@H](O)C6)c5)cc4C3)c2C1 [Example 305, (3R)-1-({2-amino-5-[4-(6,6-dimethyl-5,6,7,8-tetrahydroquinazolin-4-yl)-2,3,4,5-tetrahydro-1,4-benzoxazepin-7-yl]pyridin-3-yl}sulfonyl)pyrrolidin-3-ol] | 10 to 50
CC1(C)CCc2ncnc(N3CCOc4ccc(-c5cnc(N)c(S(=O)(=O)NC6CC7CCC(C6)N7)c5)cc4C3)c2C1 (centres unmarked) [Example 425, 2-amino-N-8-azabicyclo[3.2.1]oct-3-yl-5-[4-(6,6-dimethyl-5,6,7,8-tetrahydroquinazolin-4-yl)-2,3,4,5-tetrahydro-1,4-benzoxazepin-7-yl]pyridine-3-sulfonamide] | 10 to 50
CCCc1nc2ccc(-c3ccc4c(c3)CN(c3ccnc5ccccc35)CCO4)cc2[nH]1 [Example 197, 7-(2-propyl-1H-benzimidazol-6-yl)-4-quinolin-4-yl-2,3,4,5-tetrahydro-1,4-benzoxazepine] | 1000 to 2000
CCCc1c(C)nc(CN(C)C)nc1N1CCOc2ccc(-c3cnc4sc(N)nc4c3)cc2C1 [Example 657, 6-(4-{2-[(dimethylamino)methyl]-6-methyl-5-propylpyrimidin-4-yl}-2,3,4,5-tetrahydro-1,4-benzoxazepin-7-yl)[1,3]thiazolo[5,4-b]pyridin-2-amine] | 50 to 250
Cc1nc2ncc(-c3ccc4c(c3)CN(c3nc(CNCC(C)C)nc5c3CC(C)(C)CC5)CCO4)cc2[nH]1 [Example 594, N-({6,6-dimethyl-4-[7-(2-methyl-1H-imidazo[4,5-b]pyridin-6-yl)-2,3-dihydro-1,4-benzoxazepin-4(5H)-yl]-5,6,7,8-tetrahydroquinazolin-2-yl}methyl)-2-methylpropan-1-amine] | 10 to 50
COc1ccc2c(N3CCOc4ccc(-c5ccc6c(c5)CC(=O)N6)cc4C3)nc(C)nc2c1 [Example 524, 5-{4-[2-methyl-7-(methyloxy)quinazolin-4-yl]-2,3,4,5-tetrahydro-1,4-benzoxazepin-7-yl}-1,3-dihydro-2H-indol-2-one] | 1000 to 2000
